Measured values from US11286268B1, “EIF4E-inhibiting compounds and methods” (EFFECTOR THERAPEUTICS, INC., priority 2019, dated 2022).
pIC50: −log10 of the molar value. Read-outs that look alike come from different tables or passages of the source.

Molecular target: recombinant eIF4E (Homo sapiens (Human), UniProt P06730)
Experiment: Fluorescence polarization competition assay for eIF4E binding potency
How it was run: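 Competitive displacement format: compounds compete with a fluorescent m7GDP tracer (20 nM) for 75 nM recombinant eIF4E. Incubation is 30 min at room temperature, protected from light, with 1% DMSO. Polarization read gives IC50 over eight 3-fold concentrations.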

[1] = fluorescence polarization competition, 75 nM recombinant eIF4E, 20 nM EDA-m7GDP-ATTO-550, IC50 class, read-out: elF4E FP
[2] = inhibition of eIF4E/EDA-m7GDP-ATTO-550 binding by 50%, Table 4B calculated values, read-out: IC50

Sequence of recombinant eIF4E (P06730 whole entry): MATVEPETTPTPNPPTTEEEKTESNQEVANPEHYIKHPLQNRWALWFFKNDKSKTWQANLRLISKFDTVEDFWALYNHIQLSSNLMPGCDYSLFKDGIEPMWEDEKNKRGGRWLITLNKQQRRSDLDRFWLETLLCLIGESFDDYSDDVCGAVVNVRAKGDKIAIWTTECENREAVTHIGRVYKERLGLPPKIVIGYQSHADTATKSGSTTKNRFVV

SMILES | pIC50 [1] | pIC50 [2]
Cc1cc(-c2cc(Cl)ccc2OCCn2c(C)nc3cnc(N(C)CC(F)F)c(C#N)c3c2=O)c2scc(C(=O)O)c2n1 [compound 973] | 6.00 to 7.30 | 7.07
Cc1cc(-c2cc(Cl)ccc2OCCn2c(C)nc3cnc(NCC(F)F)c(C#N)c3c2=O)c2scc(C(=O)O)c2n1 [compound 974] | > 7.30 | 7.63
Cc1cc(-c2cc(Cl)ccc2OCCn2c(C)nc3cnc(N4CCCC4=O)c(C#N)c3c2=O)c2scc(C(=O)O)c2n1 [compound 977] | > 7.30 | 7.84
Cc1cc(-c2cc(Cl)ccc2OCCn2c(C)nc3cnc(N(C)N(C)C)c(C#N)c3c2=O)c2scc(C(=O)O)c2n1 [compound 978] | > 7.30 | 7.68
COC(=O)c1csc2c(-c3cc(Cl)ccc3C#CCn3c(C)nc4cnc(N(C)C5CCN(CC(C)(F)F)CC5)c(C#N)c4c3=O)ccnc12 [compound 980] | > 7.30 | 7.81
Cc1cc(-c2cc(Cl)ccc2OCCn2c(C)nc3cnc(N4CCc5ccccc54)c(C#N)c3c2=O)c2scc(C(=O)O)c2n1 [compound 982] | > 7.30 | 7.69
Cc1cc(-c2cc(Cl)ccc2OCCn2c(C)nc3cnc(-n4ccc5ccccc54)c(C#N)c3c2=O)c2scc(C(=O)O)c2n1 [compound 983] | > 7.30 | 7.72
Cc1cc(-c2cc(Cl)ccc2OCCn2c(C)nc3cnc(-n4cccn4)c(C#N)c3c2=O)c2scc(C(=O)O)c2n1 [compound 984] | > 7.30 | 7.94
Cc1cc(-c2cc(Cl)ccc2OCCn2c(C)nc3cnc(N(C)c4ccccc4)c(C#N)c3c2=O)c2scc(C(=O)O)c2n1 [compound 986] | > 7.30 | 7.77
Cc1cc(-c2cc(Cl)ccc2OCCn2c(C)nc3c(-c4ccccc4)nc(N(C)C)c(C#N)c3c2=O)c2scc(C(=O)O)c2n1 [compound 987] | > 7.30 | 7.87
Cc1cc(-c2cc(Cl)ccc2OCCn2c(C)nc3cnc(-c4ccc5ncsc5c4)c(C#N)c3c2=O)c2scc(C(=O)O)c2n1 [compound 993] | > 7.30 | 7.81
Cc1cc(-c2cc(Cl)ccc2OCCn2c(C)cc3cnc(-c4cc(F)cnc4C)c(C#N)c3c2=O)c2scc(C(=O)O)c2n1 [compound 1001] | > 7.30 | 7.51
Cc1cc(-c2cc(Cl)ccc2OCCn2c(C)cc3cnc(N(C)C)c(C#N)c3c2=O)c2scc(C(=O)O)c2n1 [compound 1002] | > 7.30 | 8.63
Cc1cc(-c2cc(Cl)ccc2OCCn2c(C)cc3cnc(N4CCC4)c(C#N)c3c2=O)c2scc(C(=O)O)c2n1 [compound 1003] | > 7.30 | 7.87
Cc1cc(-c2cc(Cl)ccc2OCCn2c(C)nc3cn(C)c(=O)c(C#N)c3c2=O)c2scc(C(=O)O)c2n1 [compound 1005] | > 7.30 | 7.48
Cc1cc(-c2cc(Cl)ccc2OCCn2c(C)nc3cc(Cl)c(-c4ncco4)c(C#N)c3c2=O)c2scc(C(=O)O)c2n1 [compound 1006] | > 7.30 | 7.74
Cc1cc(-c2cc(Cl)ccc2OCCn2c(C)nc3c(-c4ccccc4)nc(N4CCC4)c(C#N)c3c2=O)c2scc(C(=O)O)c2n1 [compound 1008] | > 7.30 | 7.82
COC1CN(c2ncc3nc(C)n(CCOc4ccc(Cl)cc4-c4cc(C)nc5c(C(=O)O)csc45)c(=O)c3c2C#N)C1 [compound 1010] | > 7.30 | 8.28
Cc1cc(-c2cc(Cl)ccc2OCCn2c(C)nc3cnc(N4CC(O)C4)c(C#N)c3c2=O)c2scc(C(=O)O)c2n1 [compound 1011] | > 7.30 | 8.15
CCc1cc(-c2cc(Cl)ccc2OCCn2c(C)nc3cc(C(F)(F)F)c(-c4ccncc4)c(C#N)c3c2=O)c2scc(C(=O)O)c2n1 [compound 1012] | > 7.30 | 8.05
CCc1cc(-c2cc(Cl)ccc2OCCn2c(C)nc3cc(C(F)(F)F)c(-c4cccnc4)c(C#N)c3c2=O)c2scc(C(=O)O)c2n1 [compound 1013] | > 7.30 | 7.73
CCc1cc(-c2cc(Cl)ccc2OCCn2c(C)nc3c(C)nc(-c4ccccc4)c(C#N)c3c2=O)c2scc(C(=O)O)c2n1 [compound 1015] | > 7.30 | 7.71
CCc1cc(-c2cc(Cl)ccc2OCCn2c(C)nc3cnc(-c4ccccc4)c(C#N)c3c2=O)c2scc(C(=O)O)c2n1 [compound 1016] | > 7.30 | 8.95

Further lines, results first:

pIC50 [1] | pIC50 [2] | SMILES
6.00 to 7.30 | 7.24 | Cc1cc(-c2cc(Cl)ccc2OCCn2c(C)nc3cnc(N(C)CC(F)(F)F)c(C#N)c3c2=O)c2scc(C(=O)O)c2n1 [compound 971]
> 7.30 | 8.01 | Cc1cc(-c2cc(Cl)ccc2OCCn2c(C)nc3cnc(NCC(F)(F)F)c(C#N)c3c2=O)c2scc(C(=O)O)c2n1 [compound 972]
> 7.30 | 7.72 | CON(C)c1ncc2nc(C)n(CCOc3ccc(Cl)cc3-c3cc(C)nc4c(C(=O)O)csc34)c(=O)c2c1C#N [compound 976]
> 7.30 | 8.02 | Cc1cc(-c2cc(Cl)ccc2OCCn2c(C)nc3cnc(NN(C)C)c(C#N)c3c2=O)c2scc(C(=O)O)c2n1 [compound 979]
> 7.30 | 8.17 | CNc1ncc2nc(C)n(CCOc3ccc(Cl)cc3-c3cc(C)nc4c(C(=O)O)csc34)c(=O)c2c1C#N [compound 985]
> 7.30 | 7.66 | COC(C)c1ncc2nc(C)n(CCOc3ccc(Cl)cc3-c3cc(C)nc4c(C(=O)O)csc34)c(=O)c2c1C#N (stereo not drawn) [compound 988]
> 7.30 | 7.70 | C=C(c1ncc2nc(C)n(CCOc3ccc(Cl)cc3-c3cc(C)nc4c(C(=O)O)csc34)c(=O)c2c1C#N)C(F)(F)F [compound 989]
> 7.30 | 7.49 | Cc1cc(-c2cc(Cl)ccc2OCCn2c(C)nc3cc(C(F)(F)F)c(-c4nccnc4C(F)(F)F)nc3c2=O)c2scc(C(=O)O)c2n1 [compound 990]
> 7.30 | 7.92 | Cc1cc(-c2cc(Cl)ccc2OCCn2c(C)nc3cc(C(F)(F)F)c(N4CCC(Cl)CC4)c(C#N)c3c2=O)c2scc(C(=O)O)c2n1 [compound 991]
6.00 to 7.30 | 7.25 | Cc1cc(-c2cc(Cl)ccc2OCCn2c(C)nc3cc(C(F)(F)F)c(N4CCSCC4)c(C#N)c3c2=O)c2scc(C(=O)O)c2n1 [compound 992]
> 7.30 | 7.63 | Cc1cc(-c2cc(Cl)ccc2OCCn2c(C)nc3cnc(C4CC4C(F)(F)F)c(C#N)c3c2=O)c2scc(C(=O)O)c2n1 (stereo not drawn) [compound 994]
> 7.30 | 7.80 | Cc1cc(-c2cc(Cl)ccc2OCCn2c(C)nc3cc(C(F)(F)F)c(-c4nc(C(F)F)ccc4F)c(C#N)c3c2=O)c2scc(C(=O)O)c2n1 [compound 995]
> 7.30 | 7.50 | Cc1cc(-c2cc(Cl)ccc2OCCn2c(C)nc3cc(C(F)(F)F)c(N(C)C)c(C#N)c3c2=O)c2scc(C(=O)O)c2n1 [compound 996]
> 7.30 | 7.91 | Cc1cc(-c2cc(Cl)ccc2OCCn2c(C)nc3c(C)nc(-c4cc(Cl)ccc4F)c(C#N)c3c2=O)c2scc(C(=O)O)c2n1 [compound 997]
> 7.30 | 7.35 | Cc1cc(-c2cc(Cl)ccc2OCCn2c(C)nc3c(C)nc(-c4cc(F)ccc4F)c(C#N)c3c2=O)c2scc(C(=O)O)c2n1 [compound 998]
> 7.30 | 7.79 | Cc1cc(-c2cc(Cl)ccc2OCCn2c(C)nc3c(C)nc(-c4cc(F)ccc4Cl)c(C#N)c3c2=O)c2scc(C(=O)O)c2n1 [compound 999]
> 7.30 | 7.78 | Cc1ccc(F)c(-c2ncc3cc(C)n(CCOc4ccc(Cl)cc4-c4cc(C)nc5c(C(=O)O)csc45)c(=O)c3c2C#N)n1 [compound 1000]
> 7.30 | 7.65 | Cc1cc(-c2cc(Cl)ccc2OCCn2c(C)nc3cnc(O)c(C#N)c3c2=O)c2scc(C(=O)O)c2n1 [compound 1004]
> 7.30 | 7.32 | Cc1cc(-c2cc(Cl)ccc2OCCn2c(C)nc3cc(C(F)(F)F)c[n+]([O-])c3c2=O)c2scc(C(=O)O)c2n1 [compound 1007]
> 7.30 | 8.21 | COC1CN(c2c(C(F)(F)F)cc3nc(C)n(CCOc4ccc(Cl)cc4-c4cc(C)nc5c(C(=O)O)csc45)c(=O)c3c2C#N)C1 [compound 1009]
> 7.30 | 7.59 | CCc1cc(-c2cc(Cl)ccc2OCCn2c(C)nc3cc(C(F)(F)F)c(-c4ccn(C)n4)c(C#N)c3c2=O)c2scc(C(=O)O)c2n1 [compound 1014]
> 7.30 | 8.08 | CCc1cc(-c2cc(Cl)ccc2OCCn2c(C)nc3cc(C(F)(F)F)c(-c4cc(F)cnc4C)c(C#N)c3c2=O)c2scc(C(=O)O)c2n1 [compound 1017]
> 7.30 | 8.17 | Cc1cnc(-c2nc3c(=O)n(CCOc4ccc(Cl)cc4-c4cc(C)nc5c(C(=O)O)csc45)c(C)nc3cc2C(F)(F)F)cn1 [compound 1018]
> 7.30 | 7.51 | Cc1cc(-c2cc(Cl)ccc2OCCn2c(C)nc3cc(C(F)(F)F)c(-c4nccnc4C)nc3c2=O)c2scc(C(=O)O)c2n1 [compound 1019]
> 7.30 | 7.63 | Cc1cc(-c2cc(Cl)ccc2OCCn2c(C)nc3cc(C(F)(F)F)c(-c4cnc(C(F)F)cn4)nc3c2=O)c2scc(C(=O)O)c2n1 [compound 1020]
> 7.30 | 7.68 | Cc1cc(-c2cc(Cl)ccc2OCCn2c(C)nc3cc(C(F)(F)F)c(-c4cncc(C(F)(F)F)n4)nc3c2=O)c2scc(C(=O)O)c2n1 [compound 1021]
> 7.30 | 7.37 | Cc1cnc(C)c(-c2nc3c(=O)n(CCOc4ccc(Cl)cc4-c4cc(C)nc5c(C(=O)O)csc45)c(C)nc3cc2C(F)(F)F)n1 [compound 1022]
> 7.30 | 7.30 | Cc1cnc(-c2nc3c(=O)n(CCOc4ccc(Cl)cc4-c4cc(C)nc5c(C(=O)O)csc45)c(C)nc3cc2C(F)(F)F)c(C)n1 [compound 1023]
